Calls of active or inactive are those of the source. The calls are words filed in the database; no cut-off is given here.
Assays:
[1] = molecular target: Acidic mammalian chitinase (Mus musculus, UniProt Q91XA9); experiment: Inhibition of full-length C-terminal his-tagged mouse AMCase expressed in expressed in CHO-K1 cells assessed as reduction in chitinolytic activity using 4-methylumbelliferyl-beta-D-N,N'-diacetylchitobioside hydrate as substrate after 60 mins by fluorometric assay; format: cell-based
Acidic mammalian chitinase, sequence (Q91XA9 whole entry): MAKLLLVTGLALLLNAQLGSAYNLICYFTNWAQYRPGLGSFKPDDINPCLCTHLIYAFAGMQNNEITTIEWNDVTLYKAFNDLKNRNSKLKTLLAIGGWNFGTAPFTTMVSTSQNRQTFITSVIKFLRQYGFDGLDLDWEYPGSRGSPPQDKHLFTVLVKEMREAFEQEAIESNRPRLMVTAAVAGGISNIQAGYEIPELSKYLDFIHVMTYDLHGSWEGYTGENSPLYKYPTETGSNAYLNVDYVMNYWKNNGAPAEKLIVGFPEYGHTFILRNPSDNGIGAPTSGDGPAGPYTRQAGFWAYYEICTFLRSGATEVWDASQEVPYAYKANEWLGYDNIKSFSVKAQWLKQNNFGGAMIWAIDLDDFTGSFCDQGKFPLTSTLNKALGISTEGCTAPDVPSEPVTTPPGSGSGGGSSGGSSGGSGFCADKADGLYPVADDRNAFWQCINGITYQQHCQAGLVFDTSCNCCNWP

Cytochrome P450 2C9 = Cytochrome P450 2C9 (Homo sapiens, UniProt P11712); experiment: Inhibition of CYP2C9 (unknown origin); format: ADME
Cytochrome P450 2D6 = Cytochrome P450 2D6 (Homo sapiens, UniProt P10635); experiment: Inhibition of CYP2D6 (unknown origin); format: ADME
Cytochrome P450 2D6, sequence (P10635 whole entry): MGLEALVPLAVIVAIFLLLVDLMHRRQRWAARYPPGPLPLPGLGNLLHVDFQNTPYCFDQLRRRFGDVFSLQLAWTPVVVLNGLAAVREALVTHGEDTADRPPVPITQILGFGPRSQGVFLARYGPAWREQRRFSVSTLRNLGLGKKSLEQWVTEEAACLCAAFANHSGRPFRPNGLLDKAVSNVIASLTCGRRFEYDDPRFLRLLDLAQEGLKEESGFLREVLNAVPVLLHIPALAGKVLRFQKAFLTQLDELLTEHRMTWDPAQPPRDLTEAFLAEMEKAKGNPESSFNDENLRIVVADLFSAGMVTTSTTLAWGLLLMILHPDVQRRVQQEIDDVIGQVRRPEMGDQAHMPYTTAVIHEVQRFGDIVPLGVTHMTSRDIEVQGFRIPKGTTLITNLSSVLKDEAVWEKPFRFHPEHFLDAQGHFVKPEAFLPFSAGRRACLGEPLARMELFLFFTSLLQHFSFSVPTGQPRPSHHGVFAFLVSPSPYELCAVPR

Cytochrome P450 3A4 = Cytochrome P450 3A4 (Homo sapiens, UniProt P08684); experiment: Inhibition of CYP3A4 (unknown origin); format: ADME
Cytochrome P450 3A4, sequence (P08684 whole entry): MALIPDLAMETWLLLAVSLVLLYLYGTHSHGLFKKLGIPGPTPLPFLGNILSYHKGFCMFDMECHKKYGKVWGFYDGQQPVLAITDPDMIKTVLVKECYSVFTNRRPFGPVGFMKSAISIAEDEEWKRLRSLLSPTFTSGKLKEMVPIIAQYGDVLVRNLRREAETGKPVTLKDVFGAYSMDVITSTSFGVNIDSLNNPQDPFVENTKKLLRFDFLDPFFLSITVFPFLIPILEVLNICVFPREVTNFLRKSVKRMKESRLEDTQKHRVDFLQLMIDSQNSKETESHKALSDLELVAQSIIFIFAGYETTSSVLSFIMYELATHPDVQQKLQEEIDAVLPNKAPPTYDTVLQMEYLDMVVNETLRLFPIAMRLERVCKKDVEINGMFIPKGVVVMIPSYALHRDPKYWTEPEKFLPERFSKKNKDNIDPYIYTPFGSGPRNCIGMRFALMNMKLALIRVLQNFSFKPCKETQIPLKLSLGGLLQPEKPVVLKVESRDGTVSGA

Cytochrome P450 2B6 = Cytochrome P450 2B6 (Homo sapiens, UniProt P20813); experiment: Inhibition of CYP2B6 (unknown origin); format: ADME
Cytochrome P450 2B6, sequence (P20813 whole entry): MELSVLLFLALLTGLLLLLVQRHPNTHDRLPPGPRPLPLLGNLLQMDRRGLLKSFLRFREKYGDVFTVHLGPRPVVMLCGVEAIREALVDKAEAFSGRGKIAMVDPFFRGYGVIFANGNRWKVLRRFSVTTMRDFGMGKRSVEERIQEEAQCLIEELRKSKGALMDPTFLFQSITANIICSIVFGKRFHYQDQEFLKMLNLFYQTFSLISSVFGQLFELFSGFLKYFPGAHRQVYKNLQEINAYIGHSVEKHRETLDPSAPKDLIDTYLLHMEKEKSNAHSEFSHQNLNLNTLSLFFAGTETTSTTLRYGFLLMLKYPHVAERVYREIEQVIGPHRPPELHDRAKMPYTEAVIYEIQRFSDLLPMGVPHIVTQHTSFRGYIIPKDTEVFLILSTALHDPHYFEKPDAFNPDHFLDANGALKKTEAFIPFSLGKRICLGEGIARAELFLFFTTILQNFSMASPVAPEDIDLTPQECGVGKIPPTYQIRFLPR

[2] = molecular target: Ileal sodium/bile acid cotransporter (Homo sapiens, UniProt Q12908); experiment: Inhibition of ASBT (unknown origin) at 1 to 10 uM; conditions: dose 1-10 µM
Ileal sodium/bile acid cotransporter, sequence (Q12908 whole entry): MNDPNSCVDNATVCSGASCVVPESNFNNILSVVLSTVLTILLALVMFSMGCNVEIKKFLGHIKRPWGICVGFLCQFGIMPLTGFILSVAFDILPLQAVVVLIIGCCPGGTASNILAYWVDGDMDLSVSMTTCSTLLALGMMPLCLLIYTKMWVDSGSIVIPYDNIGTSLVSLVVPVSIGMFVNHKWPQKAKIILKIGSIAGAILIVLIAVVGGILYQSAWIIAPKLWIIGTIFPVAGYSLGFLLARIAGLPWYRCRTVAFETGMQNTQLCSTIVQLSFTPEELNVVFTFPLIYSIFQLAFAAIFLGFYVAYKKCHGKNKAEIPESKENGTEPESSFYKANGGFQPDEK

[3] = molecular target: Broad substrate specificity ATP-binding cassette transporter ABCG2 (Homo sapiens, UniProt Q9UNQ0); experiment: Inhibition of BCRP (unknown origin) at 1 to 10 uM; conditions: dose 1-10 µM
Broad substrate specificity ATP-binding cassette transporter ABCG2, sequence (Q9UNQ0 whole entry): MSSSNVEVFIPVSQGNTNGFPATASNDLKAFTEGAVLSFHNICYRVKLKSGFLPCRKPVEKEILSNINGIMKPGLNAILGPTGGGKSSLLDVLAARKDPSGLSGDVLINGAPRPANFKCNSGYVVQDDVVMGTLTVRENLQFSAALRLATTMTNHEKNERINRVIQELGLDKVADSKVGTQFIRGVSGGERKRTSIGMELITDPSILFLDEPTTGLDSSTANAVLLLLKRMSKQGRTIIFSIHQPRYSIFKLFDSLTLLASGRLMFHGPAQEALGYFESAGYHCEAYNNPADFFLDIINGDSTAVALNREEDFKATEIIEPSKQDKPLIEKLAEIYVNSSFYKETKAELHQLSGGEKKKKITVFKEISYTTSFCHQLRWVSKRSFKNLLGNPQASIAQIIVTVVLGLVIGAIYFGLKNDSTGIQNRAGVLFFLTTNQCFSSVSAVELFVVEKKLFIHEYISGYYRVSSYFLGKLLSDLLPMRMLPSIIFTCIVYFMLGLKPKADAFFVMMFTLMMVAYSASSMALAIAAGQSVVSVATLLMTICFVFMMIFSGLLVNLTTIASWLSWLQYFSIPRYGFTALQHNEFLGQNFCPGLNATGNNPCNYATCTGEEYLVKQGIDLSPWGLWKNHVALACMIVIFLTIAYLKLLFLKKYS

[4] = molecular target: ATP-binding cassette sub-family C member 2 (Homo sapiens, UniProt Q92887); experiment: Inhibition of MRP2 (unknown origin) at 1 to 10 uM; conditions: dose 1-10 µM
[5] = molecular target: ATP-binding cassette sub-family C member 3 (Homo sapiens, UniProt O15438); experiment: Inhibition of MRP3 (unknown origin) at 1 to 10 uM; conditions: dose 1-10 µM
[6] = molecular target: Solute carrier family 22 member 6 (Homo sapiens, UniProt Q4U2R8); experiment: Inhibition of OAT1 (unknown origin) at 1 to 10 uM; conditions: dose 1-10 µM
Solute carrier family 22 member 6, sequence (Q4U2R8 whole entry): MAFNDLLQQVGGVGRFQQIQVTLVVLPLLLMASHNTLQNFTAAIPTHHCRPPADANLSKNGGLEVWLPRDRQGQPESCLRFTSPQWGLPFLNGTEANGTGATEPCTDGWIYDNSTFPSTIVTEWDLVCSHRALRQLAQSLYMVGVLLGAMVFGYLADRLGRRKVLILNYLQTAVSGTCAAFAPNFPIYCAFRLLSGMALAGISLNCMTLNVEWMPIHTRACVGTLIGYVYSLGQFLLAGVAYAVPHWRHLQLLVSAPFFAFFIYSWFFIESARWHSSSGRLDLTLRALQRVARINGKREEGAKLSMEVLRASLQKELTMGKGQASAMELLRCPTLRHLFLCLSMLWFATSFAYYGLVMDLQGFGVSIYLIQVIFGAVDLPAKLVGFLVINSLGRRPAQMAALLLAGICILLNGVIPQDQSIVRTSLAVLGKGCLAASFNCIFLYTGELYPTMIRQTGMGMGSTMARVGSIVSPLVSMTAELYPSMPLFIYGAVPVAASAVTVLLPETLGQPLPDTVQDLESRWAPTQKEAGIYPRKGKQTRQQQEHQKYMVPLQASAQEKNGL

[7] = molecular target: Solute carrier organic anion transporter family member 1B1 (Homo sapiens, UniProt Q9Y6L6); experiment: Inhibition of OATP1B1 (unknown origin) at 1 to 10 uM; conditions: dose 1-10 µM
Solute carrier organic anion transporter family member 1B1, sequence (Q9Y6L6 whole entry): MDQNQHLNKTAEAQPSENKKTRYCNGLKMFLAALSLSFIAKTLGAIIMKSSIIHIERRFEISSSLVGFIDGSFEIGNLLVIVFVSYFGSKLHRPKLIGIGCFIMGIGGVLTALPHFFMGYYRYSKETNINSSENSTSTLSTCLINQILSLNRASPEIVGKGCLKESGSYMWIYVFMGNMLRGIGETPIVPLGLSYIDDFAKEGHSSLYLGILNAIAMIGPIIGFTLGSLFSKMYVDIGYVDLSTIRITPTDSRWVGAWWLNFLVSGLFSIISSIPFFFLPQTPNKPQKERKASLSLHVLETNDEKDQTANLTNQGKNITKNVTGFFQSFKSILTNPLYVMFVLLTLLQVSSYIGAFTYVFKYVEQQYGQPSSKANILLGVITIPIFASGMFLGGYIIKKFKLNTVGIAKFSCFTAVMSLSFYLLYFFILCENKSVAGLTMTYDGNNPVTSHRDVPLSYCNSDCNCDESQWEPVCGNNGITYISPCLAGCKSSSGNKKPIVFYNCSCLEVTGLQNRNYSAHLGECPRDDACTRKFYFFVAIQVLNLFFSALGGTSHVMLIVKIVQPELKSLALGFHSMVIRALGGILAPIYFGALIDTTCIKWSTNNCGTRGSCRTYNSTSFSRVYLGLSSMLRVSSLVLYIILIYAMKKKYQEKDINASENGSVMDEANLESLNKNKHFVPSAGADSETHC

[8] = molecular target: Solute carrier family 22 member 1 (Homo sapiens, UniProt O15245); experiment: Inhibition of OCT1 (unknown origin) at 1 to 10 uM; conditions: dose 1-10 µM
Solute carrier family 22 member 1, sequence (O15245 whole entry): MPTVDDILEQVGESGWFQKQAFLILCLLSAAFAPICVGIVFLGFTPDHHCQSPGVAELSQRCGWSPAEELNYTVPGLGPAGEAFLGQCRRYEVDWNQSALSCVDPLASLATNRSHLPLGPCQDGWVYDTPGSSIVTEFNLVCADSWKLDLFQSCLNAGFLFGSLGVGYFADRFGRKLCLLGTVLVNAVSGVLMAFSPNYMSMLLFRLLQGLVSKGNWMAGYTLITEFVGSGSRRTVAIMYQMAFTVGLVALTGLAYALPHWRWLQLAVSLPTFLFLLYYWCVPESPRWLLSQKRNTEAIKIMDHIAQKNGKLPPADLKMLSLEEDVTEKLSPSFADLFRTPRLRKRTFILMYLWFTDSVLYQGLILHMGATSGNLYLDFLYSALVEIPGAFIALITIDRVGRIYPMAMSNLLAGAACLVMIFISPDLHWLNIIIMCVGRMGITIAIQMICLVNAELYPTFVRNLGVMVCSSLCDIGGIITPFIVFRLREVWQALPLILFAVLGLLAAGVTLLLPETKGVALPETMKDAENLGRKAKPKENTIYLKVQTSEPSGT

[9] = molecular target: Solute carrier organic anion transporter family member 1B3 (Homo sapiens, UniProt Q9NPD5); experiment: Inhibition of OATP1B3 (unknown origin) at 1 to 10 uM; conditions: dose 1-10 µM
[10] = AUC (0 to 24 hrs) in Sprague-Dawley rat at 2 mg/kg, iv administered as single bolus dose by LC-MS/MS analysis; format: ADME, organism-based; set-up: time < 24 hr, route intravenous, dose 2 mg/kg; conditions: in vivo
[11] = AUC (0 to 24 hrs) in Balb/c mouse at 3 mg/kg, iv administered as single bolus dose by LC-MS/MS analysis; format: ADME, organism-based; set-up: time < 24 hr, route intravenous, dose 3 mg/kg; conditions: in vivo
[12] = AUC (0 to 24 hrs) in Beagle dog at 3 mg/kg, iv administered as single bolus dose by LC-MS/MS analysis; format: ADME, organism-based, Canis lupus familiaris; set-up: time < 24 hr, route intravenous, dose 3 mg/kg; conditions: in vivo
[13] = Dose normalized AUC (0 to 24 hrs) in Sprague-Dawley rat at 2 mg/kg, iv administered as single bolus dose by LC-MS/MS analysis; format: ADME, organism-based; conditions: in vivo
[14] = Dose normalized AUC (0 to 24 hrs) in Balb/c mouse at 3 mg/kg, iv administered as single bolus dose by LC-MS/MS analysis; format: ADME, organism-based; conditions: in vivo
[15] = Dose normalized AUC (0 to 24 hrs) in Beagle dog at 3 mg/kg, iv administered as single bolus dose by LC-MS/MS analysis; format: ADME, organism-based, Canis lupus familiaris; conditions: in vivo
[16] = Dose normalized AUC (0 to 24 hrs) in Balb/c mouse at 10 mg/kg, po administered as single dose by LC-MS/MS analysis; format: ADME, organism-based; conditions: in vivo
[17] = Initial plasma concentration in Sprague-Dawley rat at 2 mg/kg, iv administered as single bolus dose by LC-MS/MS analysis; format: ADME, organism-based
[18] = Cmax in Sprague-Dawley rat at 6 mg/kg, po administered as single dose by LC-MS/MS analysis; format: ADME, organism-based; set-up: route oral, dose 6 mg/kg; conditions: in vivo
[19] = Dose normalized Cmax in Beagle dog at 3 mg/kg, iv administered as single bolus dose by LC-MS/MS analysis; format: ADME, organism-based, Canis lupus familiaris; conditions: in vivo
[20] = Dose normalized Cmax in Sprague-Dawley rat at 6 mg/kg, po administered as single dose by LC-MS/MS analysis; format: ADME, organism-based; conditions: in vivo
[21] = Dose normalized Cmax in Beagle dog at 10 mg/kg, po administered as single dose by LC-MS/MS analysis; format: ADME, organism-based, Canis lupus familiaris; conditions: in vivo
[22] = Tmax in Balb/c mouse at 10 mg/kg, po administered as single dose by LC-MS/MS analysis; format: ADME, organism-based; conditions: in vivo
[23] = Tmax in Beagle dog at 10 mg/kg, po administered as single dose by LC-MS/MS analysis; format: ADME, organism-based, Canis lupus familiaris; conditions: in vivo
[24] = Elimination half-life in Balb/c mouse at 3 mg/kg, iv administered as single bolus dose by LC-MS/MS analysis; format: ADME, organism-based; conditions: in vivo, read-out: beta t1/2 (converted)
[25] = Elimination half-life in Sprague-Dawley rat at 6 mg/kg, po administered as single dose by LC-MS/MS analysis; format: ADME, organism-based; conditions: in vivo, read-out: beta t1/2 (converted)
[26] = Elimination half-life in Balb/c mouse at 10 mg/kg, po administered as single dose by LC-MS/MS analysis; format: ADME, organism-based; conditions: in vivo, read-out: beta t1/2 (converted)
[27] = Elimination half-life in Beagle dog at 10 mg/kg, po administered as single dose by LC-MS/MS analysis; format: ADME, organism-based, Canis lupus familiaris; conditions: in vivo, read-out: beta t1/2 (converted)
[28] = Clearance (0 to infinity) in Balb/c mouse at 3 mg/kg, iv administered as single bolus dose by LC-MS/MS analysis; format: ADME, organism-based; conditions: in vivo
[29] = Clearance (0 to 24 hrs) in Balb/c mouse at 3 mg/kg, iv administered as single bolus dose by LC-MS/MS analysis; format: ADME, organism-based; conditions: in vivo
[30] = Volume of distribution at steady state in Balb/c mouse at 3 mg/kg, iv administered as single bolus dose measured upto 24 hrs by LC-MS/MS analysis; format: ADME, organism-based; conditions: in vivo, read-out: Vdss
[31] = Oral bioavailability in Sprague-Dawley rat at 6 mg/kg, administered as single dose by LC-MS/MS analysis; format: ADME, organism-based; conditions: in vivo
[32] = Oral bioavailability in Balb/c mouse at 10 mg/kg, administered as single dose by LC-MS/MS analysis; format: ADME, organism-based; conditions: in vivo
[33] = Oral bioavailability in Beagle dog at 10 mg/kg, administered as single dose by LC-MS/MS analysis; format: ADME, organism-based, Canis lupus familiaris; conditions: in vivo
[34] = In-vivo inhibition of CHIT1 in C57BL/6N mouse assessed as decrease in chitinolytic activity in plasma at 30 mg/kg, po qd administered via gavage measured up to 12 hrs relative to control; format: functional; conditions: time hrs <=12
[35] = Drug uptake in C57BL/6N mouse plasma at 30 mg/kg, po qd administered via gavage measured 24 hrs post dose; format: ADME, organism-based; conditions: in vivo
[36] = Drug uptake in C57BL/6N mouse lung at 30 mg/kg, po qd administered via gavage measured 24 hrs post dose; format: ADME, organism-based; conditions: in vivo
[37] = Drug uptake in C57BL/6N mouse plasma at 30 mg/kg, po bid administered via gavage measured 24 hrs post dose; format: ADME, organism-based; conditions: in vivo
Mus musculus = species on record: Mus musculus; conditions: C57BL/6N, dose 30.0 mg/kg

Question: What does the source list for `C[C@H]1CN(C2CCN(c3nc(N)n[nH]3)CC2)[C@@H](Cc2ccc(Cl)cc2)CO1` [5-(4-((2S,5S)-5-(4-CHLOROBENZYL)-2-METHYLMORPHOLINO)PIPERIDIN-1-YL)-1H-1,2,4-TRIAZOL-3-AMINE]?
Answer: IC50 [1]: 7.8 nM; Ki [1]: 5.7 nM; inhibition (INH) (Cytochrome P450 2C9): Not Active; inhibition (INH) (Cytochrome P450 2D6): Not Active; inhibition (INH) (Cytochrome P450 3A4): Not Active; inhibition (INH) (Cytochrome P450 2B6): Not Active; inhibition (INH) [2]: Not Active; inhibition (INH) [3]: Not Active; inhibition (INH) [4]: Not Active; inhibition (INH) [5]: Not Active; inhibition (INH) [6]: Not Active; inhibition (INH) [7]: Not Active; inhibition (INH) [8]: Not Active; inhibition (INH) [9]: Not Active; AUC(0-t) at 24 h [10]: 5560 ng·h/mL; AUC(0-t) at 24 h [11]: 8600 ng·h/mL; AUC(0-t) at 24 h [12]: 31000 ng·h/mL; AUC/dose [13]: 2.78 kg·mg·h/L/mg; AUC/dose [14]: 2.87 kg·mg·h/L/mg; AUC/dose [15]: 10.34 kg·mg·h/L/mg; AUC/dose [16]: 2.22 kg·mg·h/L/mg; C0 [17]: 1000 ng/mL; Cmax [18]: 2210 ng/mL; Cmax/dose [19]: 0.82 kg.mg/L.mL; Cmax/dose [20]: 0.37 kg.mg/L.mL; Cmax/dose [21]: 0.76 kg.mg/L.mL; Tmax [22]: 2 h; Tmax [23]: 0.5 h; half-life [24]: 2.09 h; half-life [25]: 4.47 h; half-life [26]: 1.88 h; half-life [27]: 22.9 h; clearance [28]: 5.83 mL/min/kg; clearance [29]: 5.83 mL/min/kg; Vd [30]: 1.01 L/kg; bioavailability [31]: 107%; bioavailability [32]: 77.4%; bioavailability [33]: 91.4%; inhibition in vivo at 30 mg/kg [34]: 70%; Drug uptake [35]: Active; Drug uptake [36]: Active; Drug uptake [37]: Active; inhibition (Mus musculus): Active
